Compound: C1CC(C2=C(C1)C3=C(N2)C=CC(=C3)Cl)C(=O)N [Selisistat] + Nc1nc2[nH]cc(CCc3ccc(C(=O)N[C@@H](CCC(=O)O)C(=O)O)cc3)c2c(=O)[nH]1 [Pemetrexed] (partner 0.2 µM)
Assay: relative viability (nuclei count vs DMSO), 5 days (fraction); higher = more cells survive
Settings: first compound 0.4 µM
How it was run: (§1)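 Lung cancer cell lines in 1536-well plates were dosed by pin tool the day after seeding, either with one drug alone or with a fixed anchor-drug dose plus five library-drug doses (not always all listed) in √10 steps. After 5 days, cells were fixed and their nuclei stained in one step (final 0.05% Triton X-100, 1% formaldehyde, 1 ug/ml Hoechst), then counted on 4× images. Relative viability is the nuclei count in treated wells divided by that in vehicle wells. Values are medians of duplicate plates.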

| Cell Line | relative viability |
| --- | --- |
| NCI-H522 | 1.03 |
| NCI-H1650 | 0.359 |
| NCI-H1993 | 0.581 |
| SW 1573 | 0.798 |
| NCI-H838 | 0.243 |
| LCLC-103H | 0.42 |
| NCI-H520 | 0.776 |
| NCI-H2126 | 0.716 |
| EMC-BAC-2 | 0.406 |
| NCI-H2085 | 1.06 |
| HCC-366 | 0.136 |
| NCI-H1666 | 0.948 |
| NCI-H596 | 0.514 |
| LK-2 | 0.271 |
| NCI-H2087 | 0.681 |
| NCI-H2342 | 0.806 |
| SK-MES-1 | 1.01 |
| NCI-H2170 | 0.249 |
| HCC-44 | 0.681 |
| SW 900 | 0.468 |
| NCI-H1648 | 0.562 |
| NCI-H1395 | 0.97 |
| NCI-H1792 | 0.696 |
| NCI-H1793 | 1.06 |
| NCI-H1563 | 0.831 |
| NCI-H1944 | 0.634 |
| NCI-H358 | 0.182 |

Same assay, conditions: first compound 1.265 µM

| Cell Line | relative viability |
| --- | --- |
| NCI-H522 | 0.646 |
| NCI-H1650 | 0.348 |
| NCI-H1993 | 0.711 |
| SW 1573 | 0.774 |
| NCI-H838 | 0.243 |
| LCLC-103H | 0.473 |
| NCI-H520 | 0.676 |
| NCI-H2126 | 0.653 |
| EMC-BAC-2 | 0.422 |
| NCI-H2085 | 0.967 |
| HCC-366 | 0.184 |
| NCI-H1666 | 0.803 |
| NCI-H596 | 0.546 |
| LK-2 | 0.32 |
| NCI-H2087 | 0.624 |
| NCI-H2342 | 0.756 |
| SK-MES-1 | 0.957 |
| NCI-H2170 | 0.264 |
| HCC-44 | 0.675 |
| SW 900 | 0.464 |
| NCI-H1648 | 0.584 |
| NCI-H1395 | 0.968 |
| NCI-H1792 | 0.633 |
| NCI-H1793 | 0.824 |
| NCI-H1563 | 0.857 |
| NCI-H1944 | 0.575 |
| NCI-H358 | 0.221 |

Same assay, conditions: first compound 4 µM

| Cell Line | relative viability |
| --- | --- |
| NCI-H522 | 0.781 |
| NCI-H1650 | 0.354 |
| NCI-H838 | 0.222 |
| LCLC-103H | 0.469 |
| NCI-H520 | 0.647 |
| NCI-H2126 | 0.588 |
| EMC-BAC-2 | 0.522 |
| NCI-H2085 | 0.622 |
| HCC-366 | 0.193 |
| NCI-H1666 | 0.871 |
| NCI-H596 | 0.485 |
| LK-2 | 0.232 |
| NCI-H2342 | 0.677 |
| SK-MES-1 | 0.917 |
| NCI-H2170 | 0.25 |
| HCC-44 | 0.655 |
| SW 900 | 0.461 |
| NCI-H1563 | 0.713 |
| NCI-H1944 | 0.458 |
| NCI-H358 | 0.158 |

Same assay, conditions: first compound 12.65 µM

| Cell Line | relative viability |
| --- | --- |
| NCI-H522 | 0.94 |
| NCI-H1650 | 0.397 |
| NCI-H1993 | 0.554 |
| SW 1573 | 0.815 |
| NCI-H838 | 0.228 |
| LCLC-103H | 0.509 |
| NCI-H520 | 0.668 |
| NCI-H2126 | 0.68 |
| EMC-BAC-2 | 0.331 |
| NCI-H2085 | 0.939 |
| HCC-366 | 0.146 |
| NCI-H1666 | 0.822 |
| NCI-H596 | 0.475 |
| LK-2 | 0.265 |
| NCI-H2087 | 0.634 |
| NCI-H2342 | 0.77 |
| SK-MES-1 | 0.828 |
| NCI-H2170 | 0.244 |
| HCC-44 | 0.685 |
| SW 900 | 0.517 |
| NCI-H1648 | 0.599 |
| NCI-H1395 | 0.639 |
| NCI-H1792 | 0.913 |
| NCI-H1793 | 1.03 |
| NCI-H1563 | 0.664 |
| NCI-H1944 | 0.674 |
| NCI-H358 | 0.177 |

Same assay, conditions: first compound 40 µM

| Cell Line | relative viability |
| --- | --- |
| NCI-H522 | 1.1 |
| NCI-H1650 | 0.326 |
| NCI-H1993 | 0.592 |
| SW 1573 | 0.776 |
| NCI-H838 | 0.226 |
| LCLC-103H | 0.529 |
| NCI-H520 | 0.644 |
| NCI-H2126 | 0.655 |
| EMC-BAC-2 | 0.352 |
| NCI-H2085 | 0.877 |
| HCC-366 | 0.164 |
| NCI-H1666 | 0.853 |
| NCI-H596 | 0.478 |
| LK-2 | 0.252 |
| NCI-H2087 | 0.691 |
| NCI-H2342 | 0.769 |
| SK-MES-1 | 1.01 |
| NCI-H2170 | 0.242 |
| HCC-44 | 0.691 |
| SW 900 | 0.46 |
| NCI-H1648 | 0.743 |
| NCI-H1395 | 0.908 |
| NCI-H1792 | 0.755 |
| NCI-H1793 | 0.867 |
| NCI-H1563 | 0.611 |
| NCI-H1944 | 0.584 |
| NCI-H358 | 0.19 |

Compound: c1ccc2c(CCNc3ccc(Nc4ccncc4)cc3)c[nH]c2c1 [Serdemetan] + CC(C)C[C@H](NC(=O)[C@H](Cc1ccccc1)NC(=O)c1cnccn1)B(O)O [Bortezomib] (partner 0.002 µM)
Assay: as above
Settings: first compound 0.04 µM
How it was run: as §1

| Cell Line | relative viability |
| --- | --- |
| NCI-H727 | 0.923 |
